Experiments:
[1] = test system: PDE (Peak I); experiment: Substrate kinetics of PDE (Peak I) from cat heart; assay type: biochemical
[2] = test system: PDE (Peak III); details: eluted at 0.5 M Na acetate
Method: (§1) There were three major peaks which had the following characteristics:
(§2) The enzyme was assayed by incubation at 37° for 4-30 min in 50 mM Tris, 5 mM MgCl2, pH 7.5 with [3-H]cyclic nucleotide (4×10^5 disintegrations min^-1) and [14-C]nucleotide 5' monophosphate (3×10^3 disintegrations min^-1). […] The reaction mixture was diluted with 0.5 ml 100 mM HEPES (N-2-Hydroxyethyl-piperazine-N'-2-ethanesulfonic acid), 100 mM NaCl, pH 8.5, and applied to the column. […] The recovery of product as judged by [14-C]recovery was approximately 80%. All assays were linear with time of incubation and concentration of enzyme over the range used in these experiments.

[3] = test system: PDE (Peak II); details: eluted at 0.3 M Na acetate
Method: as §1, §2

[4] = test system: left ventricular dp/dt max (left ventricular contractility); experiment: Cardiac stimulant activity in vivo: left ventricular dp/dt max in anaesthetised cats; design: species or system cat; details: anaesthetised cats pretreated with pempidine and propranolol, intravenous
[5] = test system: guinea pig right ventricular strips; experiment: Cardiac stimulant activity in vitro: increase in force of contraction of electrically stimulated ventricular strips; details: Cavia porcellus, read-out: EC50 (50% increase in the force of contraction of the ventricular strips); 37° C., stimulated at 1.0 Hz, cumulative concentration response
Method: The compounds of formula (I) and their pharmaceutically acceptable salts are tested for cardiac stimulant activity following a procedure based on that of S.C. Verma and J. H. McNeill (J. Pharm & Exp. Therapeutics, 200, 352-362 (1977)). Guinea pigs (500-700 g) of either sex are sacrificed and the hearts are quickly removed and transferred to a dissecting dish containing oxygenated bathing fluid. While in the bathing medium, the right ventricle is cut into two strips. The strips are each suspended in a 50 ml bath containing Krebs Henseleit solution at 37° C., and the bath is bubbled with 95% oxygen and 5% carbon dioxide. The ventricular strips are electrically stimulated at a frequency of 1.0 Hz, at double the threshold voltage. A resting tension of 1.0 g is applied to the strips and the tension is kept constant by readjustment during an equilibration period of 60 minutes. The bathing fluid is frequently changed during this period. When a steady base line is obtained, a compound under test is added to the bathing fluid and a cumulative concentration response curve is plotted.

[6] = test system: PDE (Peak III); experiment: Inhibition of PDE (Peak III) from cat heart; assay type: biochemical; details: read-out: IC50 (50% inhibition of PDE (Peak III) activity); 1 μM cyclic AMP, 37°, pH 7.5
Method: as §1, §2

Km [2]	Km [3]	EC50 [5]	IC50 [6]	SMILES	Relative Vmax ([1]; 50 μg/ml calmodulin added)	Relative Vmax ([1]; without 50 μg/ml calmodulin)	Relative Vmax [2]	Relative Vmax [3]	duration of activity [4]	ED50 ([4]; Felis catus, read-out: ED50 (dose to increase left ventricular dp/dt max by 50%))
2.9 µM	28 µM	–	–	Nc1nc2c(ncn2[C@@H]2O[C@@H]3COP(=O)(O)O[C@H]3[C@H]2O)c(=O)[nH]1 [cyclic GMP]	7.2	1.1	0.4	0.2	–	–
–	–	–	–	Nc1cc(-c2ccncc2)c[nH]c1=O [Amrinone]	–	–	–	–	short duration of activity	–
–	–	65 nM	80 nM	CCC(=NC#N)Nc1ccc(C2=NNC(=O)CC2C)cc1 (centres unmarked) [Example 1, 6-[4-(N^2 -Cyanopropanimidamido)phenyl]-5-methyl-4,5-dihydro-3(2H)-pyridazinone]	–	–	–	–	long duration of activity	0.02 µmol/kg
